Laboratory results from patent publication US20260347351A1, “INHIBITORS OF PDE11A4 AND METHODS OF USING SAME” (UNIVERSITY OF MARYLAND, BALTIMORE, priority 2022, published 2026).
≈ marks a conversion by molar mass, not a printed value.

Assays:
[1] = target: T1, PDE11A4 (Homo sapiens, UniProt Q9HCR9); assay: In vitro PDE11A4 enzyme inhibition assay (Ba(OH)2 precipitation method); format: biochemical; settings: for IC50: in vitro
T1 construct: purchased BPS Bioscience
Protocol: In vitro enzyme assays are conducted via the Ba(OH)2 precipitation method of Wang et al. using commercially-available recombinant PDEs representing all 11 PDE families. Assays for PDE11A inhibition are carried out with both 200 nM cAMP and 100 nM cGMP. Substrate concentrations for the remaining PDEs are 100 nM cGMP (PDE1C), 1 μM cGMP (PDE2A), 30 nM cGMP (PDE3B), 120 nM cAMP (PDE4D), 500 nM cGMP (PDE5A), […] (PDE6C), 15 nM cAMP (PDE7A), 10 nM cAMP (PDE8A), 70 nM cGMP (PDE9A), and 30 nM cAMP (PDE10A).
These compounds were profiled further using additional commercially available analogs and by in vitro ADME characteristics. The synthesis of these analogs is illustrated in the schemes of FIGS. 24-26. […] In the rightmost column of FIG. 27B, percent (%) values refer to percent inhibition, and non-percent values refer to IC50 values.
In vitro enzyme assays were conducted via the Ba(OH)2 precipitation method of Wang et al. using recombinant human PDE3A, PDE4D3, PDE5A, PDE6C, PDE10A1, and PDE11A4 (BPS Bioscience)). Substrate concentrations used were 15 nM cGMP (PDE3A), 18 nM cAMP (PDE3A) 200 nM cAMP (PDE4D3), 500 nM cGMP (PDE5A), 1.7 μM cGMP (PDE6C), 30 nM cAMP (PDE10A), […] (PDE10A), 100 nM cGMP (PDE11A4) and 240 nM cAMP (PDE11A4). […] Inhibitor concentrations of 4, 13.7, 40, 123, 370, 1110, 3330 and 10,000 nM were used. The values reported are means of at least three independent experiments. Substrate concentrations were ~0.1×KM for each enzyme; thus, IC50 values approximate the Ki values.

[2] = target: mPDE11A4 (Mus musculus, UniProt P0C1Q2); assay: Reversal of aging-like punctate accumulations of EmGFP-mPDE11A4 in HT-22 hippocampal cells; format: cell-based; settings: HT-22 cells overexpressing EmGFP-mPDE11A4
Chain of mPDE11A4 (P0C1Q2 whole entry): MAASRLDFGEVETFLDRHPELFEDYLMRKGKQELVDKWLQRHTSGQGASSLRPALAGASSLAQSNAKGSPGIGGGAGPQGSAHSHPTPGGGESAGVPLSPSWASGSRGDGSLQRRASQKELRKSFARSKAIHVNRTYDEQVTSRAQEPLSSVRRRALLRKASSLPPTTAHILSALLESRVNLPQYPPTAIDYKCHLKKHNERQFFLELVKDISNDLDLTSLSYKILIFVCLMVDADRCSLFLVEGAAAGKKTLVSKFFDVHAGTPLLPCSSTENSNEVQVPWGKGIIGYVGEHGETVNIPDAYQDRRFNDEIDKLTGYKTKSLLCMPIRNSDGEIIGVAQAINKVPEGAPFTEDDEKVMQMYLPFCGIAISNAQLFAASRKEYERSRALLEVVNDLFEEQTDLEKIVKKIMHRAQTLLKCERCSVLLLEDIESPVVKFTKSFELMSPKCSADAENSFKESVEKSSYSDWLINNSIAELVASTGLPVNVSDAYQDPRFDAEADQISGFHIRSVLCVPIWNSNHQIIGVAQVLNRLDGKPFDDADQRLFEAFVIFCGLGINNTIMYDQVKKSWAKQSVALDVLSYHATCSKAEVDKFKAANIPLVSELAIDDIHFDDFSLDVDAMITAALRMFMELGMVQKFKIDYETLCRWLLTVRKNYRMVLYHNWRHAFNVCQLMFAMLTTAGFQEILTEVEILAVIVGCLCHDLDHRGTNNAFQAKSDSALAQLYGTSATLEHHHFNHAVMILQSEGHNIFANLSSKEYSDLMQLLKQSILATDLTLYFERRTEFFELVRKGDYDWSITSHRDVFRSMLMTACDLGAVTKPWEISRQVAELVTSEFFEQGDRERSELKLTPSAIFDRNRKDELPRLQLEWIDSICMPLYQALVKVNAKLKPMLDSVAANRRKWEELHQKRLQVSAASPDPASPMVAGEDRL
Protocol: In vivo, expression of PDE11A4 increases in the hippocampus across the lifespan in humans and rodents, resulting in age-related punctate accumulations of PDE11A4 protein in “ghost axons.” These age-related PDE11A4 accumulations were mimicked by overexpressing mouse PDE11A4 in mouse HT-22 hippocampal cells. FIGS. 31A-31B is an image of HT-22 cells overexpressing EmGFP-mPDE11A4 treated with the vehicle DMSO (FIG. 30A) or 1 uM 25b (FIG. 30B).
See FIGS. 35A and 35B, which show images of HT-22 cells overexpressing EmGFP-mPDE11A4 treated with the vehicle DMSO (35A) or 1 uM 25b (35B).

[3] = Kinetic aqueous solubility, pH 7.4; format: physicochemical; settings: aqueous buffer, PBS, Example 4 Table 1
Protocol: The mixture is agitated at 25° C. for 1 hour, filtered and evaluated by UV and/or LCMSMS analysis. Data are reported as mg/mL and μM concentration.

[4] = target: CYP2C9 (Homo sapiens, UniProt P11712); assay: CYP2C9 inhibition (fluorescent substrate); format: in vitro ADME; settings: Example 4 Table 1
Chain of CYP2C9 (P11712 whole entry): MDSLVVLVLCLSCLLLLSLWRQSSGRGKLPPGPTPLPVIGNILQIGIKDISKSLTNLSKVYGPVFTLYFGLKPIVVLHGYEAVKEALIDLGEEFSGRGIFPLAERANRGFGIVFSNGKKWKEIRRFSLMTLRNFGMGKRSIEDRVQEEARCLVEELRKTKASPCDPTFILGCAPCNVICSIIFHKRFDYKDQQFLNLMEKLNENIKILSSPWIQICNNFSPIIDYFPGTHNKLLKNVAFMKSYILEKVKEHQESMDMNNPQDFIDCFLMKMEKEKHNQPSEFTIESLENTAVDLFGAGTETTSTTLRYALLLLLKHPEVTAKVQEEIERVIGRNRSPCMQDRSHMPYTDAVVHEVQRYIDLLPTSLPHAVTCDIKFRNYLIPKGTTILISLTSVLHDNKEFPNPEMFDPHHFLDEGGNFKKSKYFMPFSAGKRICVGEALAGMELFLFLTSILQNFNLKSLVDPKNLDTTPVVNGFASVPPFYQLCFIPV
Protocol: (§1) CYP inhibition: Compounds are assessed for their ability to inhibit the three major human cytochrome P450 enzymes, 3A4, 2D6 and 2C9. Expressed enzymes are used to minimize non-specific binding and membrane partitioning issues. The 3A4 assay uses testosterone as a substrate and is analyzed by LC/MS/MS on a Waters TQ instrument using positive or negative electrospray ionization. The 2D6 and 2C9 assays use fluorescent substrates and are analyzed on an Envision Plate Reader.

[5] = Metabolic stability in human liver microsomes; format: in vitro ADME
Protocol: (§2) Metabolic stability: Samples at 37° C. in the presence of human or mouse liver microsomes and NADPH according to standard methods. Aliquots are removed at 5 time points, quenched and analyzed (LCMS/MS and MS/MS as needed) for remaining test compound, along with a positive control. Microsomal protein content is adjusted to give consistent results. Data are reported as half-life and clearance. Assay acceptance criteria is 20% for all standards and 25% for the LLOQ.

[6] = target: CYP2D6 (Homo sapiens, UniProt P10635); assay: CYP2D6 inhibition (fluorescent substrate); format: in vitro ADME; settings: Example 4 Table 1
Chain of CYP2D6 (P10635 whole entry): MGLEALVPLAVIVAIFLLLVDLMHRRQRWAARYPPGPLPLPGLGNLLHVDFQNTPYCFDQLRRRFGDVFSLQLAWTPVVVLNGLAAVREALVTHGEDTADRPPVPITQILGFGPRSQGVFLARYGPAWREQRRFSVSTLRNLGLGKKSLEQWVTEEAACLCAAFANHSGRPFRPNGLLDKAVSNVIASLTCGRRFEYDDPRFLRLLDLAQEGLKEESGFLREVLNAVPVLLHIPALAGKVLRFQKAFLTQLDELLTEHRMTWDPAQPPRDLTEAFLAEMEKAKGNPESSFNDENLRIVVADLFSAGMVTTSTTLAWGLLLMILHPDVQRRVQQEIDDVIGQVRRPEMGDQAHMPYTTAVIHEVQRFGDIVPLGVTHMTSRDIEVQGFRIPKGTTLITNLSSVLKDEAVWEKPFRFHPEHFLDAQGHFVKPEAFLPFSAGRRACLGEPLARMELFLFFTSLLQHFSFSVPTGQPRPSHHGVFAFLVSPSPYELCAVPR
Protocol: as §1

[7] = target: CYP3A4 (Homo sapiens, UniProt P08684); assay: CYP3A4 inhibition (testosterone substrate); format: in vitro ADME; settings: Example 4 Table 1
Chain of CYP3A4 (P08684 whole entry): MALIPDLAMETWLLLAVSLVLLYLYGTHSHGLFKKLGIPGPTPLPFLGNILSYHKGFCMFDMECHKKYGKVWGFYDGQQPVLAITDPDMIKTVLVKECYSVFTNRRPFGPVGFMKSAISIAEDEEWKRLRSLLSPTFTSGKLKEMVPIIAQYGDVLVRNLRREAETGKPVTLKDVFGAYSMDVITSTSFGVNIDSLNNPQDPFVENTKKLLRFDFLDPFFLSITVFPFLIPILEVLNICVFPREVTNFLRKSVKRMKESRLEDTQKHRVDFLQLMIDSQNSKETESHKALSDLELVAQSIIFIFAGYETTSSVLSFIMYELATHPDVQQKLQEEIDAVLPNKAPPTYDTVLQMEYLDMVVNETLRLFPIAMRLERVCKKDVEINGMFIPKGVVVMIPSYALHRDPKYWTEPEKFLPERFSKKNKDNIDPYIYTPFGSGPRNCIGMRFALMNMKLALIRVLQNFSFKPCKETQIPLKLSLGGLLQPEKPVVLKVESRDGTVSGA
Protocol: as §1

[8] = system: MDCK cell monolayers; assay: MDCK / MDCK-MDR1 permeability and efflux; format: in vitro ADME; settings: Example 4 Table 1
Protocol: MDCK permeability: MDCK cell monolayers (Absorption Systems, Malvern, PA) are grown to confluence on collagen-coated microporous membranes in 12-well assay plates. Assay buffer consists of Hanks' balanced salt solution containing 10 mM HEPES and 15 mM glucose at pH—7.4. The buffer in the receiver chamber also contains 1% bovine serum albumin. Compounds are tested at a final concentration of 5 μM in the assay buffer. Cell monolayers are dosed on the apical side (A-B) or basolateral side (B-A) and incubated at 37° C. with 5% CO2 in a humidified incubator. Samples are taken from the donor and receiver chambers at 120 minutes. Each determination is performed in duplicate. The flux of Lucifer yellow is also measured post-experimentally for each monolayer to ensure no damage is inflicted to the monolayer during flux period. Samples are assayed on a Waters TQ LC/MS/MS using positive or negative electrospray ionization.

[9] = Metabolic stability in mouse liver microsomes; format: in vitro ADME
Protocol: as §2

T1 sequence (Q9HCR9 whole entry): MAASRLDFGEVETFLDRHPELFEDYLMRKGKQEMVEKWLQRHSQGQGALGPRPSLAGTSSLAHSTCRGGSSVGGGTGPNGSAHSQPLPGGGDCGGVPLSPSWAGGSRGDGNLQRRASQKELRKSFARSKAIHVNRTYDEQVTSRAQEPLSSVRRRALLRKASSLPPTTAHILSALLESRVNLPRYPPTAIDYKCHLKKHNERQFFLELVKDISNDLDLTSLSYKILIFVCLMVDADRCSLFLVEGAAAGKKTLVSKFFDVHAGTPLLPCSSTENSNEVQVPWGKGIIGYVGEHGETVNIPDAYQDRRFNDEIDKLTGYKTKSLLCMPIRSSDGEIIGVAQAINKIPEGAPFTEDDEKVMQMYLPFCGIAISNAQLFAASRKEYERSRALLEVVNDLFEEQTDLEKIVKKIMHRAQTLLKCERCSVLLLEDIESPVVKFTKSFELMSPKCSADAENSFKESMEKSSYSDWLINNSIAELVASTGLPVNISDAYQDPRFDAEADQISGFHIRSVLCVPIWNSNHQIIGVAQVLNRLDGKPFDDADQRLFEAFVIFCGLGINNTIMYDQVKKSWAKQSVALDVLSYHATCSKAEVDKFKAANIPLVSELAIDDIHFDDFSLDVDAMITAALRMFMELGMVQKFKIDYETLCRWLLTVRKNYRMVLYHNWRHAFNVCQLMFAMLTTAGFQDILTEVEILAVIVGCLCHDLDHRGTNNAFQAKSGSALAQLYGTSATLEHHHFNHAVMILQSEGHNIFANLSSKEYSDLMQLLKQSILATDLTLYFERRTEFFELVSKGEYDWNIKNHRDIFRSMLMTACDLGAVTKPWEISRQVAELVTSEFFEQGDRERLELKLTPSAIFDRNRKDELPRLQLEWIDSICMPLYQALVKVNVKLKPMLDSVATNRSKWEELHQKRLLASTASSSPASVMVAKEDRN

CCn1nccc1-c1cc(-c2ncc(C)o2)c2cnn(-c3ccccc3)c2n1 [Compound 1003]
IC50 [1]: 140 nM

CCn1nccc1-c1cc(-c2ncc(C)s2)c2cnn(-c3ccccc3)c2n1 [Compound 1001]
inhibition at 0.5 µM ([1]; @500 nM): 62%

CCn1nccc1-c1cc(-c2nnc(C)s2)c2cnn(-c3ccccc3)c2n1 [Compound 1005]
IC50 [1]: 170 nM

CN1CC(=O)N2[C@H](c3ccc4c(c3)OCO4)c3[nH]c4ccccc4c3C[C@@H]2C1=O [Tadalafil, tadalafil]
reversal of aging-like accumulations of mPDE11A4 [2]: able to reverse these aging-like accumulations of mPDE11A4

CCN(CC)C(=O)c1cc(-c2cccs2)nc2c1c(C)nn2-c1ccccc1 [Compound 3001]
solubility [3]: 54 µM (≈ 21.1 µg/mL)
IC50 [4]: 4900 nM
microsomal CLint ([5]; Example 4 Table 1, read-out: Human Liver Microsome Clint): > 690 µL/min/mg
half-life ([5]; Example 4 Table 1, read-out: Human Liver Microsome Stability t½): < 2 min
IC50 [6]: > 10000 nM
IC50 [7]: 3000 nM
MDCK1 A:B [8]: 0.78
microsomal CLint ([9]; Example 4 Table 1, read-out: Mouse Liver Microsome Clint): > 690 µL/min/mg
half-life ([9]; Example 4 Table 1, read-out: Mouse Liver Microsome Stability t½): < 2 min

CCn1nccc1-c1cc(-c2nnc(C)o2)c2cnn(-c3ccccc3)c2n1 [Compound 1007]
IC50 [1]: 70 nM

CCCSc1nc2c(c(=O)n1-c1ccccc1)SCC2 [BC11-38]
reversal of aging-like accumulations of mPDE11A4 [2]: able to reverse these aging-like accumulations of mPDE11A4
